{"source": "patent US6200966A", "about": "“Compositions for inhibiting airway wall inflammation” (Amrad Operations Pty. Ltd., priority 1996, dated 2001)", "key": {"[1]": {"tested_on": "guinea-pig peritoneal macrophages", "assay": "Prostacyclin (6-oxo-PGF1α) release in peritoneal macrophages", "assay_type": "cell-based", "method": "(§1) Cells were incubated with stimuli including the chemotactic tripeptide, formyl methiony leucyl Phenylalanine (fMLP, 100 nM), Zymosan (400 μg/ml) or phorbol myristate acetate (PMA, 100 nM) for 30 min in the presence or absence of 2-methoxyestradiol (10 μM) added 15 min before the stimuli. […] All individual incubations were carried out in duplicate and experiments were carried out in macrophages from 5 guinea-pigs."}, "[2]": {"tested_on": "Human polymorphonuclear leukocytes", "assay": "Tetramethylbenzidine oxidation (myeloperoxidase release/activity) in leukocytes", "conditions": "for Tetramethylbenzidine oxidation: 2-methoxyestradiol 3 μM"}, "[3]": {"tested_on": "vascular smooth muscle", "conditions": "Goyache et al., 1995; cited from earlier work"}, "[4]": {"tested_on": "adherent monocytes", "assay": "Superoxide anion generation in adherent monocytes", "assay_type": "cell-based, human"}, "[5]": {"tested_on": "certain transformed cell lines", "conditions": "Lottering et al., 1992; cited from earlier work"}, "[6]": {"tested_on": "human cultured airway smooth muscle cells", "assay": "Protein synthesis: [3H]-leucine incorporation", "assay_type": "cell-based", "conditions": "for activity at 0.3 µM / activity at 1 µM / activity at 3 µM / activity at 10 µM: mean ± SEM"}, "[7]": {"tested_on": "human cultured airway smooth muscle cells", "assay": "Cell counting (increase in cell number)", "assay_type": "cell-based", "conditions": "FCS (1%) or bFGF (300 pM); 3 μM; 48 h", "method": "Human bronchial airway smooth muscle was obtained from macroscopically normal lung resection specimens from lung transplant donors or recipients provided by the Alfred Hospital (Melbourne). Cultures were prepared as previously described in detail (Tomlinson et al., 1994). […]\nThe progression of airway smooth muscle cells through the cell-cycle to mitosis was determined by measuring changes in cell number in experiments of analogous design to those used for DNA synthesis, except that the incubations with mitogen were continued for 48 hours. […] At the end of this period, a further 200 μl of PBS (20% FCS) was added to prevent cell lysis by trypsin and cells were counted directly in a haemocytometer.\nEach treatment in an individual experiment was carried out in quadruplicate for DNA and protein synthesis experiments. […] Results are presented as grouped data from multiple cultures and are expressed as mean ±S. E. of n cultures. The degree of increment was calculated by dividing the response of treated wells by that of the control wells on the same 24-well plate. The grouped data was analysed by paired t-test after normalisation by log transformation. […]"}, "[8]": {"tested_on": "cultured smooth muscle cells from rabbit aorta", "conditions": "Nishigaki et al., 1995; cited from earlier work"}, "[9]": {"tested_on": "Human polymorphonuclear leukocytes", "assay": "Phagocytosis: radioiodination of zymosan particles (125I uptake)", "assay_type": "cell-based", "method": "Data are expressed as percentage of ^125 I incorporation into glass\nfiber-filterable material. Assays were carried out using 1 ×"}, "[10]": {"tested_on": "guinea-pig peritoneal macrophages", "assay": "Superoxide anion release in peritoneal macrophages", "assay_type": "cell-based", "conditions": "10 μM", "method": "as §1, with “Guinea-pig peritoneal macrophages were harvested and cultured according to out previous studies (Stewart & Phillips, 1989). Cells” for “Cells”"}, "[11]": {"tested_on": "pig endometrial cell cultures", "conditions": "Zhang & Davis, 1992; cited from earlier work"}, "[12]": {"tested_on": "airway smooth muscle cells", "assay": "Morphological changes (cell rounding)", "assay_type": "cell-based, human"}, "[13]": {"tested_on": "tumours", "conditions": "cited from earlier work"}, "[14]": {"tested_on": "horseradish peroxidase", "assay": "Oxidation of tetramethyl benzidine by purified horseradish peroxidase", "assay_type": "biochemical", "conditions": "10 μM"}, "[15]": {"conditions": "Homo sapiens, 5HT (10 nM)-stimulated cells"}, "[16]": {"conditions": "Homo sapiens, unstimulated cells"}}, "note": "Entries after “also recorded” stand apart in the source; their conditions may differ."}
{"smiles": "COc1cc2c(cc1O)CC[C@@H]1[C@@H]2CC[C@]2(C)[C@@H](O)CC[C@@H]12", "note": "[2-methoxyestradiol, 1,3,5[10]-estratriene-2,3,17-triol 2-methylether]", "values": [{"measurement": "inhibition at 10 µM", "setting": "[1]; Cavia porcellus, Peritoneal macrophage, 0.5 h, PMA (100 nM), read-out: reduction of 6-oxo-PGF1α / prostacyclin response, PMA", "value": 50, "unit": "%"}, {"measurement": "6-oxo-PGF1α / prostacyclin generation, fMLP", "setting": "[1]; fMLP (100 nM), 10 μM", "value": "completely blocked"}, {"measurement": "oxidation of tetramethyl-benzidine in leukocytes", "setting": "[2]; 3 μM, zymosan (400 μg/ml) or fMLP stimulated", "value": "reduced oxidation of tetramethyl-benzidine"}, {"measurement": "Tetramethylbenzidine oxidation", "setting": "[2]; control (no stimulus), 2×10^6 PMN in 0.5 ml", "value": "-0.004 change in absorbance value"}, {"measurement": "Tetramethylbenzidine oxidation", "setting": "[2]; fMLP 100 nM (basal 0.057)", "value": "0.028 change in absorbance value"}, {"measurement": "Tetramethylbenzidine oxidation", "setting": "[2]; zymosan 400 μg/ml (basal 0.26)", "value": "0.013 change in absorbance value"}, {"measurement": "myeloperoxidase activity in cell-free supernatants", "setting": "[2]; fMLP stimulated leukocytes, highest concentration 10 μM", "value": "reduced only by the highest concentration"}, {"measurement": "release of myeloperoxidase from polymorphonuclear leukocytes", "setting": "[2]; human peripheral blood", "value": "inhibits the release of myeloperoxidase"}, {"measurement": "vascular smooth muscle relaxation", "setting": "[3]", "value": "relaxation of vascular smooth muscle"}, {"measurement": "superoxide anion generation in adherent monocytes, PMA", "setting": "[4]; response to PMA", "value": "unaffected"}, {"measurement": "superoxide anion generation in adherent monocytes, zymosan", "setting": "[4]; zymosan-stimulated, 10 μM, at least some donors", "value": "markedly inhibited"}, {"measurement": "proliferation of transformed cell lines", "setting": "[5]", "value": "inhibits proliferation"}, {"measurement": "[3H]-leucine incorporation at 10 μM", "setting": "[6]; 10 μM, thrombin or bFGF", "value": "no significant inhibitory effect"}, {"measurement": "activity at 0.3 µM", "setting": "[6]; [15]", "value": "91 ± 5", "unit": "%"}, {"measurement": "activity at 1 µM", "setting": "[6]; [15]", "value": "62 ± 2", "unit": "%"}, {"measurement": "activity at 3 µM", "setting": "[6]; [15]", "value": "56 ± 2", "unit": "%"}, {"measurement": "activity at 10 µM", "setting": "[6]; [15]", "value": "51 ± 6", "unit": "%"}, {"measurement": "activity at 0.3 µM", "setting": "[6]; [16]", "value": "135 ± 3", "unit": "%"}, {"measurement": "activity at 1 µM", "setting": "[6]; [16]", "value": "84 ± 4", "unit": "%"}, {"measurement": "activity at 3 µM", "setting": "[6]; [16]", "value": "77 ± 3", "unit": "%"}, {"measurement": "activity at 10 µM", "setting": "[6]; [16]", "value": "113 ± 9", "unit": "%"}, {"measurement": "inhibition at 3 µM", "setting": "[6]; Homo sapiens, at 3 μM, thrombin, FCS 1% or bFGF, read-out: maximum percentage reduction of [3H]-leucine incorporation", "value": "~30", "unit": "%"}, {"measurement": "minimal effective concentration", "setting": "[6]; Homo sapiens, thrombin (0.3 U/ml), FCS (1% v/v) or bFGF (300 pM), 48 h, read-out: threshold concentration for inhibition of [3H]-leucine incorporation", "value": 1, "unit": "µM"}, {"measurement": "[3H]-leucine incorporation, compound alone, 10 μM", "setting": "[6]; unstimulated, 10 μM", "value": "no effect"}, {"measurement": "[3H]-leucine incorporation, compound alone, 1 and 3 μM", "setting": "[6]; unstimulated, 1 and 3 μM", "value": "small inhibitory effects"}, {"measurement": "increase in cell number", "setting": "[7]", "value": "complete inhibition"}, {"measurement": "proliferation of rabbit aorta smooth muscle cells", "setting": "[8]", "value": "anti-proliferative effects"}, {"measurement": "125I uptake", "setting": "[9]; 3 μM, PHS (pooled human serum), control (basal 2.13)", "value": "1.87 percentage of ^125 I incorpora"}, {"measurement": "125I uptake", "setting": "[9]; 3 μM, PHS, zymosan (basal 4.33)", "value": "3.27 percentage of ^125 I incorpora"}, {"measurement": "125I uptake", "setting": "[9]; 3 μM, no PHS, control (basal 1.80)", "value": "1.97 percentage of ^125 I incorpora"}, {"measurement": "125I uptake", "setting": "[9]; 3 μM, no PHS, zymosan (basal 2.83)", "value": "1.97 percentage of ^125 I incorpora"}, {"measurement": "125I uptake", "setting": "[9]; 10 μM, PHS, control (basal 2.13)", "value": "1.75 percentage of ^125 I incorpora"}, {"measurement": "125I uptake", "setting": "[9]; 10 μM, PHS, zymosan (basal 4.33)", "value": "1.65 percentage of ^125 I incorpora"}, {"measurement": "125I uptake", "setting": "[9]; 10 μM, no PHS, control (basal 1.80)", "value": "2.05 percentage of ^125 I incorpora"}, {"measurement": "125I uptake", "setting": "[9]; 10 μM, no PHS, zymosan (basal 2.83)", "value": "1.80 percentage of ^125 I incorpora"}, {"measurement": "radioiodination of zymosan particles by PMN (phagocytosis)", "setting": "[9]; 3 and 10 μM", "value": "significant effects being observed at both 3 and 10 μM"}, {"measurement": "phagocytic activity of polymorphonuclear leukocytes", "setting": "[9]; human peripheral blood", "value": "reduction of phagocytic activity"}, {"measurement": "superoxide anion response of macrophages, PMA", "setting": "[10]; PMA (100 nM)", "value": "unaffected"}, {"measurement": "superoxide anion response of macrophages, fMLP", "setting": "[10]; fMLP (100 nM)", "value": "reduced"}, {"measurement": "superoxide anion response of macrophages, zymosan", "setting": "[10]; zymosan (400 μg/ml)", "value": "reduced; also recorded: completely blocked"}, {"measurement": "synthesis of PGF2α", "setting": "[11]", "value": "inhibits the synthesis of PGF2α"}, {"measurement": "onset of shape changes", "setting": "[12]; 3 and 10 μM", "value": "≤ 6", "unit": "h"}, {"measurement": "morphological changes", "setting": "[12]; 3 and 10 μM (2-methoxyestradiol)", "value": "rounded appearance of the normally spindle-shaped cells"}, {"measurement": "growth of tumours", "setting": "[13]; Fotsis et al., 1994", "value": "inhibited the growth of tumurs"}, {"measurement": "tumour neovascularization", "setting": "[13]; Klauber et al, 1997", "value": "Inhibition of tumour neovascularization"}, {"measurement": "oxidation of tetramethyl benzidine by purified horseradish peroxidase", "setting": "[14]", "value": "lack of effect; also recorded: no effect"}]}
